According to patent US20250326799A1, “AGENTS INDUCING VASCULARISATION” (Coegin Pharma AB, priority 2022, published 2025):
Entries after “also recorded” stand apart in the source; their conditions may differ.

Columns and labels:
[1] = test system: Human umbilical cord endothelial cells (HUVECs); experiment: BrdU cell proliferation in HUVECs; format: cell-based; conditions: for endothelial cell proliferation (DNA synthesis, uptake of BrdU, O.D. 450 nm): 10 nM, 100 nM, 1000 nM, compared to control; for proliferation of human umbilical vascular endothelial cells (BrdU uptake): addition of the peptide, increasing concentration; for stimulation of endothelial cell proliferation (BrdU) after NRP-1 knock-down: HUVECs treated with siRNA-NC or siRNA for NRP-1, then peptide
Description: Cell proliferation was evaluated with BrdU Cell Proliferation Elisa Kit (Abcam, UK). After incubation at 37° C. overnight with respective complete medium, for NRP-1 knock down-relative experiments, HUVECs and HCASMCs on 96-well plates were transfected with siRNA/siRNA-NC directly; for test polypeptide stimulations, HUVECs and HCASMCs were starved with low-serum condition for additional 24 hours and 48 hours before treatments. At 32 hours after transfection or polypeptide stimulations, cells were cultured with BrdU reagent for another 16 hours to determine cell proliferation. Subsequent steps were performed as manufacturer's instructions and data were read by Wallac 1420 Victor 2 (Perkin Elmer, USA).
For stimulation of endothelial cell proliferation, human umbilical cord endothelial cells were first treated with a scramble non-coding siRNA (NC) or siRNA for NRP-1, subsequently they were treated with FOL26 in concentrations of 10 nM, 100 nM, and 1000 nM, and DNA synthesis analyzed by measuring the uptake of BrdU.
The impact of FOL-026 peptide on human umbilical vascular endothelial cells (HUVECs) proliferation (FIG. 18a) and apoptosis (FIG. 18c) induced with low-oxygen condition was determined by BrdU uptake (n=8-9 per group) and active caspase-3/-7 (n=7-10 per group) separately. The ROS level (FIG. 18b) activated by 50 ug/ml oxidized Low-density Lipoprotein (oxLDL) for 2 hours in cells pre-incubated with FOL-026 peptides was assessed using H2O2 measurement (n=4-8 per group). Representative pictures of endothelial migration into an in vitro scratch injury were shown (FIG. 19a) and the wound closure rate (FIG. 19b) in HUVECs stimulated with increasing concentration of FOL-026 peptide was quantified by image J software (n=8-9 per group). Scale bar=150 um. Data are presented as means±SEM and acquired from 3 to 4 independent replicate tests. *P<0.05, **P<0.01, ****P<0.0001 by one-way ANOVA and Dunnett's post-hoc test.
The efficiency of small interfering RNA transfection for 48 hours in HUVECs was confirmed by qRT-PCR (n=4) (FIG. 22a). Effect of FOL-026 peptide stimulation on cell proliferation (FIG. 22b) and cell apoptosis at 0.1% oxygen (FIG. 22c) in HUVECs transfected with siRNA-NC or siNRP-1 was evaluated by BrdU incorporation (n=4-7 per group) and active caspase-3/-7 ((n=4-7 per group). Representative pictures of endothelial cells at 0 and 5 hours after scratch wounding are shown in 23a. The wound closure rate (FIG. 23b) of siRNA-NC/siNRP-1-transfected HUVECs stimulated with increasing concentration of FOL-026 peptide was quantified by image J software (n=9-12 per group). Scale bar=150 um. Data are presented as means±SEM and acquired from 3 to 4 independent replicate tests. *P<0.05, **P<0.01, ***P<0.001, ****P<0.0001 by Student's t test for A, two-way ANOVA followed with Sidak's and Dunnett's multiple comparisons test for B, C and E.
The endothelial cell proliferation (FIG. 29a) was assessed with BrdU uptake in human umbilical vascular endothelial cells (HUVECs) stimulated with increasing concentration of FOL-005 peptide for 48 hours (n=7-10 per group).

[2] = test system: Human umbilical cord endothelial cells (HUVECs); experiment: Endothelial tube formation on Geltrex matrix; format: cell-based; conditions: for endothelial tube formation / endothelial tube formation after NRP-1 knock-down: HUVECs; for endothelial tube formation: 10 nM, 100 nM, 1000 nM, compared to control; for tube formation (total length, master segments, branching, segments length): HUVECs treated with peptide; for endothelial tube formation after NRP-1 knock-down: siRNA-NC or siNRP-1 group, then rising dose of peptide
Description: Cells were transfected for 48 hours or performed with 0.5% supplement starvation for 24 hours on 6-well plates as described above and dissociated by Accutase (Gibco, USA) to obtain cell suspension. Geltrex reduced growth factor basement membrane matrix ((Invitrogen, CA, USA) was thawed at 4° C. overnight and added into a 96-well plate (50 µl/well) next. The coated 96-well plate was placed in the incubator more than 30 mins for further use and the cell suspension was seeded into it at a density of 1.5 x 10^4/well. For NRP-1 silencing experiments, cells were cultured with complete medium. For polypeptide treatment experiments, cells were stimulated with complete medium plus the different concentration of polypeptide. For NRP-1 rescued experiments, cells transfected with siRNA were cultured with complete medium and NRP-1 stimulations. After a 24-hour incubation, images were recorded by an inverted microscope (Nikon, Eclipse TE2000-U, Japan) and the sum length of master segments of vessels in each image were quantified using Angiogenesis Analyzer plug-in ImageJ software program (pixel/unit). Data were analyzed with photographs from 8-14 wells per condition.
Human umbilical cord endothelial cells were first treated with a scramble non-coding siRNA (NC) or siRNA for NRP-1, subsequently treated with FOL26 in concentrations of 10 nM, 100 nM, and 1000 nM, and endothelial tube formation and the total master segemnts were measured using ImageJ. gene expression of PECAM-1 (CD31) analyzed.
Quantified measurement of total length (FIG. 20b), total master segments length (FIG. 20c), total branching length (FIG. 20d) and total segments length (FIG. 20e) were performed to evaluate angiogenesis in vitro (n=7 per group for FIG. 29 b-e). The quantification of vessel density was assessed with CD31+ positive area (FIG. 21a, n=13 per group). Western blot analysis of phosphorylated AKT (pAKT-T308), AKT, phosphorylated ERK1/2 (p-ERK1/2) and ERK1/2 in endothelial cells stimulated with FOL-26 peptides for 48 hours (FIG. 21b). Quantification of phosphorylation intensities normalized to respective total expressions (FIG. 21c-d, n=3 per group).
Tube formation with rising dose of FOL-026 peptide treatment in siRNA-NC or siNRP-1 group (FIG. 24a) and total length (FIG. 24b), total master segments length (FIG. 24c), total branching length (FIG. 24d) and total segments length (FIG. 24e) was calculated using Angiogenesis Analyzer plug-in ImageJ (n=7-12 per group). Scale bar=150 um. Data are presented as means±SEM and acquired from 3 to 4 independent replicate tests. *P<0.05, **P<0.01, ***P<0.001, ****P<0.0001 by two-way ANOVA followed with Sidak's and Dunnett's multiple comparisons test.
Quantified measurement of total master segments length FIG. 31b was used to evaluate angiogenesis in vitro (n=7 per group). Scale bar=150 um.

Row | Sequence | endothelial cell proliferation (DNA synthesis, uptake of BrdU, O.D. 450 nm) ([1]; HUVECs) | endothelial tube formation [2] | proliferation of human umbilical vascular endothelial cells (BrdU uptake) ([1]; HUVECs) | tube formation (total length, master segments, branching, segments length) [2] | stimulation of endothelial cell proliferation (BrdU) after NRP-1 knock-down [1] | stimulation of endothelial cell proliferation (BrdU) after NRP-1 knock-down ([1]; listed as FOL26) | endothelial cell proliferation (DNA synthesis, uptake of BrdU, O.D. 450 nm) ([1]; HUVECs, listed as FOL26) | BrdU uptake after siRNA for NRP-1 ([1]; HUVECs, 10 and 100 nM) | endothelial tube formation after NRP-1 knock-down [2] | endothelial tube formation after NRP-1 knock-down ([2]; listed as FOL26) | endothelial tube formation ([2]; listed as FOL26)
1 | AEIDSIELSYGIK [FOL56] | significant increase in proliferation; also recorded: increases proliferation at all concentrations | significantly increased tube formation; also recorded: increased tube formation at all concentrations | – | – | – | – | – | – | – | – | –
2 | VDTYDGDISVVYGLR [FOL-005] | – | – | increases | increases the tube formation | – | – | – | – | – | – | –
3 | VDTYDGGISVVYGLR [FOL-026] | – | – | increases | positive effect | blocks the effect | NRP-1 dependent | significant increase in proliferation; also recorded: increase in O.D. (450 nm) | reduction | induce tube formation | increased tube formation compared to control in a NRP-1 dependent way | significantly increased tube formation; also recorded: increased tube formation compared to control
